Test results from US9464064B2, “HCV helicase inhibitors and methods of use thereof” (University of Kansas, priority 2011, dated 2016).

Target: T1, HCV NS3 helicase NS3h_1b(con1) (Hepatitis C virus genotype 1b, UniProt Q9WMX2)
T1 construct: truncated C-terminally His-tagged NS3 proteins lacking the N-terminal protease, called NS3h; His-tag (C); made in house
Test: MBHA screen of NCI mechanistic set library at 20 μM (percent inhibition, compound interference)
Type: biochemical
Conditions: compounds at 20 μM; for Inh. (%) (Inhibition): calculated from Equation 1
Outline: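 Molecular beacon-based DNA unwinding assay; compounds screened at 20 μM in triplicate, with DMSO-only negative and 500 nM dT20 positive controls. Fluorescence (ex 643/em 670 nm) was read before and 30 min after adding ATP to 1 mM. Percent inhibition came from the change relative to DMSO controls; interference from pre-ATP fluorescence versus DMSO controls.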

[1] = MBHA with DNA substrate, assay interference calculated with Equation 2
[2] = assay interference calculated with Equation 2 (fluorescence vs DMSO-only controls before ATP)

T1 sequence (Q9WMX2 1192-1657): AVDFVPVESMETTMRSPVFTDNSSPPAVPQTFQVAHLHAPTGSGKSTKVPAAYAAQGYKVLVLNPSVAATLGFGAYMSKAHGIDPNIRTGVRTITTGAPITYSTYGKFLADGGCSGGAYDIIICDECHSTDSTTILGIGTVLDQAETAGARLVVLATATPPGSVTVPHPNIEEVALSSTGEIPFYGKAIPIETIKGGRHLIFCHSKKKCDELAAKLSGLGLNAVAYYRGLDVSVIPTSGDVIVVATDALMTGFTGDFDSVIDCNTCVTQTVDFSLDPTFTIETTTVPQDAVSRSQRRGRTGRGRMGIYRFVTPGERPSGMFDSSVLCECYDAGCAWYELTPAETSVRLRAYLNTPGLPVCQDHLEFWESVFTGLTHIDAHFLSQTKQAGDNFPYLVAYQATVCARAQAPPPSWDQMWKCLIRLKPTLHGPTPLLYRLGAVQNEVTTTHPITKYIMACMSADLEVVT

Structure (SMILES) | Int.* (Ratio) (Interference) [1] | Inh. (%) (Inhibition) (MBHA with DNA substrate) | Inh. (%) (Inhibition) (MBHA with a DNA substrate) | Int.* (Ratio) (Interference) [2]
O=C(CCc1ccccc1)On1nnc2ccccc2c1=O [Compound 630374] | 0.89 | 1.3 | – | –
Cn1cnc([N+](=O)[O-])c1Sc1nnnn1-c1ccccc1 [Compound 631152] | 0.94 | −7.3 | – | –
Cn1cnc([N+](=O)[O-])c1Sc1nnc(-c2cccnc2)n1C [Compound 631160] | – | – | 9.9 | 0.91
O=C1c2ccccc2C(=O)c2sc(Nc3ccc(Cl)c(Cl)c3)nc21 [Compound 631521] | – | – | −22.6 | 0.93
O=C1c2ccccc2C(=O)c2sc(Nc3ccc(Cl)cc3)nc21 [Compound 631529] | – | – | −28.9 | 1.06
N#CC1=C(N)Oc2c(ccc3cccnc23)C1c1ccccc1 (centres unmarked) [Compound 631583] | 0.98 | 5.1 | – | –
COc1ccc(Cc2nc3ccccc3s2)cc1OC [Compound 632233] | 1.04 | −2.7 | – | –
CC1(C)CC(Nc2ccc(Nc3ccccc3)cc2)CC(C)(C)N1 [Compound 632536] | 0.84 | 20.7 | – | –
Cc1ccc(/C=C2\CNC/C(=C\c3ccc(C)cc3)C2=O)cc1.Cl [Compound 632839] | 0.87 | 20.4 | – | –
C=CC(=O)N1C/C(=C\c2ccccc2)C(=O)/C(=C/c2ccccc2)C1 [Compound 632841] | 0.81 | 15.6 | – | –
O=[N+]([O-])c1ccccc1S(=O)(=O)c1ccccc1[N+](=O)[O-] [Compound 633001] | 0.89 | 23.2 | – | –
O=C(NC(=O)c1c(Cl)nc2sccn12)Nc1ccc(Cl)cc1 [Compound 633209] | – | – | 9.9 | 0.87
O=C1C(c2cnc3ccccc3n2)=C(O)c2ccccc21 [Compound 634224] | 1.17 | 2.7 | – | –
Cc1c(Cl)cccc1NC(=O)CC1Sc2ccccc2NC1=O (centres unmarked) [Compound 634396] | 0.99 | −17.6 | – | –
CCOC(=O)CCn1ncc(Cl)c(Cl)c1=O [Compound 634471] | 1.06 | 2.3 | – | –
COC(=O)C1=CC(=O)C(C(=O)Nc2ccc(OC)cc2)C(c2ccccc2)O1 (centres unmarked) [Compound 634473] | 1.01 | 4.2 | – | –
CCc1cccc(CC)c1NC(=O)C(C#N)C1=C(Cl)C(=O)c2ccccc2C1=O (centres unmarked) [Compound 634503] | – | – | −31.9 | 0.93
Cn1c(=O)c2nc3sc4c(n3c2n(C)c1=O)C(=O)c1ccccc1C4=O [Compound 634568] | 0.90 | −14.8 | – | –
O=C1C=CC(CC(=O)c2ccc3ccccc3c2)O1 (centres unmarked) [Compound 634650] | – | – | −4.4 | 1.12
CC(=O)/C(=C\c1cccc([N+](=O)[O-])c1)C(=O)Nc1ccccc1C [Compound 634658] | 0.85 | 15.7 | – | –
O=S1(=O)OCCOS(=O)(=O)C1Cc1ccccc1 [Compound 634863] | 0.99 | −18.2 | – | –
[O-][S+]1c2ccccc2N=C(c2cccc3ccccc23)CC1c1cccc2ccccc12 (centres unmarked) [Compound 634926] | 0.92 | −14.5 | – | –
CC1=C(C(=O)NCc2ccccc2)C(c2ccccc2O)C(C(=O)NCc2ccccc2)=C(C)N1 [Compound 634928] | – | – | 6.8 | 0.97
C/C(NNC(=O)c1ccccc1O)=C1\C=Nc2ccccc2S1 [Compound 635121] | 0.92 | 14.5 | – | –
COC(=O)c1[nH]c(=S)[nH]c(=O)c1-c1ccc(Cl)cc1 [Compound 635140] | 1.04 | 4.6 | – | –

Structure (SMILES) | Int.* (Ratio) (Interference) [1] | Inh. (%) (Inhibition) (MBHA with DNA substrate) | Inh. (%) (Inhibition) (MBHA with a DNA substrate) | Int.* (Ratio) (Interference) [2]
O=C(c1ccccc1)C1OC12C(=O)Nc1c(Cl)cc(Cl)cc12 (centres unmarked) [Compound 635306] | – | – | −6.8 | 0.96
O=C(c1ccccc1)C(c1ccccc1)C1(O)C(=O)Nc2c(Cl)cc(Cl)cc21 (centres unmarked) [Compound 635312] | 0.93 | −18.1 | – | –
Cc1c(Cl)ccc2c1NC(=O)C2(O)C(C(=O)c1ccccc1)c1ccccc1 (centres unmarked) [Compound 635321] | 1.01 | 5.1 | – | –
O=C(CC1(O)C(=O)Nc2c(Cl)cc(Cl)cc21)c1ccc([N+](=O)[O-])cc1 (centres unmarked) [Compound 635326] | 1.11 | 5.9 | – | –
O=C(CC1(O)C(=O)Nc2c(Cl)cc(Cl)cc21)c1cccc2ccccc12 (centres unmarked) [Compound 635328] | 0.99 | 2.5 | – | –
CN1CCN(CCSC2Cc3cc(Cl)ccc3Sc3ccccc32)CC1 (centres unmarked) [Compound 635366] | 1.05 | 25.5 | – | –
Cc1cc(Cl)cc2c1NC(=O)C2(O)C(C(=O)c1ccccc1)c1ccccc1 (centres unmarked) [Compound 635435] | – | – | 6.9 | 0.96
O=C(CC1(O)C(=O)Nc2c(Cl)ccc(Cl)c21)c1ccc(Cl)cc1Cl (centres unmarked) [Compound 635436] | 0.89 | 15.6 | – | –
O=C(CC1(O)C(=O)Nc2c(Cl)ccc(Cl)c21)c1ccc(Cl)cc1 (centres unmarked) [Compound 635437] | 0.92 | 0.1 | – | –
O=C(CC1(O)C(=O)Nc2c(Cl)cc(Cl)cc21)c1cccc([N+](=O)[O-])c1 (centres unmarked) [Compound 635438] | – | – | −23.8 | 1.02
CC(=O)/C(C)=N/NC(=O)c1ccccc1O [Compound 635441] | 0.92 | 16.7 | – | –
C/C(=N\NC(=S)N(C)C)c1ccccn1.[Cu][Br] [Compound 635448] | 0.93 | 0.8 | – | –
Cc1c(C(=O)C/C(=N/NC(=O)CC#N)C(N)=O)[n+](=O)c2ccccc2n1[O-] [Compound 635542] | 0.91 | −12.7 | – | –
Cc1c(C(=O)C/C(=N\O)C(=O)Nc2cc(Cl)c(Cl)cc2Cl)[n+](=O)c2ccccc2n1[O-] [Compound 635544] | – | – | −21.9 | 0.82
O=[N+]([O-])c1cc(-c2nc(=S)[nH][nH]2)ccc1O [Compound 635563] | – | – | −6.8 | 0.92
Cc1ccccc1OCC(COC(=O)Nc1ccccc1)OC(=O)Nc1ccccc1 (centres unmarked) [Compound 635824] | 0.91 | 13.5 | – | –
COC(=O)C(=O)C(C(=O)Nc1cccc(C)c1C)C1Sc2ccccc2NC1=O (centres unmarked) [Compound 635833] | 0.93 | −7.3 | – | –
CC1=NC(C(C)C)C(=O)O1 (centres unmarked) [Compound 635968] | – | – | 9.0 | 0.97
CC(C)(C)c1ccc(OC2CCO2)cc1 (centres unmarked) [Compound 635975] | 0.97 | −2.4 | – | –
CC1CCCC(C(=O)/C(=C/c2cccc(Cl)c2)C(=O)C(=O)O)C1 (centres unmarked) [Compound 636084] | 1.01 | −8.2 | – | –
Cc1ccccc1NC(=O)C(=O)C(C#N)c1ccccc1C (centres unmarked) [Compound 636132] | 0.90 | 4.4 | – | –
O=C(/C=C/c1c(O)ccc2ccccc12)c1cccc(O)c1 [Compound 636786] | – | – | 8.8 | 0.91
COc1ccc(C2=Nc3ccccc3SC(C)C2)cc1 (centres unmarked) [Compound 636817] | – | – | −30.3 | 1.07
NC(=Nc1nc(-c2ccccn2)cc2ccccc12)c1ccccn1 [Compound 637578] | – | – | 7.9 | 0.97
